Assay results as given in patent US11168102B1, “Bicyclic heteroaryl compounds and uses thereof” (Revolution Medicines, Inc., priority 2019, dated 2021).

test system: cellular pERK in PC-9 cells (EGFR Ex19Del); assay: Potency assay: pERK (AlphaLISA SureFire Ultra p-ERK1/2) in PC-9 cells; format: cell-based; settings: Homo sapiens, PC-9, 1 h, PC-9 cells (EGFR Ex19Del), 1 hour incubation, AlphaLISA SureFire Ultra p-ERK1/2; read-out: SOS1 pERK IC50

SMILES | IC50 [nM]
C[C@@H](Nc1ncnc2c1cc(C1CCS(=O)(=O)CC1)c(=O)n2C)c1ccc(-c2ccccc2CCN)s1 [Example 33-19] | 182
C[C@@H](Nc1ncnc2c1cc(C(=O)N1CCOCC13COC3)c(=O)n2C)c1cccc(C(F)F)c1F [Example 26-35] | 193
Cc1nc(N[C@H](C)c2cc(N)cc(C(F)(F)F)c2)c2cc(C3=CCNCC3)c(=O)n(C)c2n1 [Example 6, 4-[[(1R)-1-[3-amino-5-(trifluoromethyl)phenyl]ethyl]amino]-2,8-dimethyl-6-(1,2,3,6-tetrahydropyridin-4-yl)pyrido[2,3-d]pyrimidin-7-one] | 188
CC(=O)N1CCC(c2cc3c(N[C@H](C)c4cccc(C(F)F)c4CF)ncnc3n(C)c2=O)CC1 [Example 39, 6-(1-acetylpiperidin-4-yl)-4-{[(1R)-1-[3-(difluoromethyl)-2-(fluoromethyl)phenyl]ethyl]amino}-8-methyl-7H,8H-pyrido[2,3-d]pyrimidin-7-one] | 1560
C[C@@H](Nc1ncnc2c1cc(C1(F)CCS(=O)(=NC3CC3)CC1)c(=O)n2C)c1cccc(C(F)F)c1F (stereo partly drawn) [Example 56, 6-((1R,4r)-1-(cyclopropylimino)-4-fluoro-1-oxidohexahydro-1λ^6-thiopyran-4-yl)-4-(((R)-1-(3-(difluoromethyl)-2-fluorophenyl)ethyl)amino)-8-methylpyrido[2,3-d]pyrimidin-7(8H)-one] | 57.2
C[C@@H](Nc1ncnc2c1cc(C1(F)CN(S(C)(=O)=O)C1)c(=O)n2C)c1cccc(C(F)F)c1F [Example 29-6] | 470
COCCN1CCN(C(=O)c2cc3c(N[C@H](C)c4cccc(C(F)F)c4F)ncnc3n(C)c2=O)CC1 [Example 26-48] | 220
COCC1COCCN1C(=O)c1cc2c(N[C@H](C)c3cccc(C(F)F)c3F)ncnc2n(C)c1=O (some centres unmarked) [Example 26-37] | 747
CO[C@@]1(c2cc3c(N[C@H](C)c4cccc(C(F)F)c4F)ncnc3n(C)c2=O)C[C@H](C)N(C(C)=O)C1 [Example 32-50] | 153
C[C@@H](Nc1ncnc2c1cc(-c1cccnc1)c(=O)n2C)c1cccc(C(F)F)c1F [Example 21-15] | 212
C[C@@H](Nc1ncnc2c1cc(C1(O)CCN(C(=O)OC(C)(C)C)C1)c(=O)n2C)c1cccc(C(F)F)c1F (some centres unmarked) [Example 28-9] | 369
C[C@@H](Nc1ncnc2c1cc(C(=O)N1CC[C@@H]3CO[C@@H]3C1)c(=O)n2C)c1cccc(C(F)F)c1F [Example 26-16] | 729

Results, then the compound that gave them:

IC50 [nM] | SMILES
49.9 | C[C@@H](Nc1ncnc2c1cc(C1(C)CCS(=O)(=O)CC1)c(=O)n2C)c1cccc(C(F)F)c1F [Example 37, 4-(4-{[(1R)-1-[3-(difluoromethyl)-2-fluorophenyl]ethyl]amino}-8-methyl-7-oxo-7H,8H-pyrido[2,3-d]pyrimidin-6-yl)-4-methyl-1λ^6-thiane-1,1-dione]
152 | C[C@@H](Nc1ncnc2c1cc(C(=O)N1CC3(CCOCC3)C1)c(=O)n2C)c1cccc(C(F)F)c1F [Example 26-33]
61.4 | CN=S1(=O)CC=C(c2cc3c(N[C@H](C)c4cccc(C(F)F)c4F)ncnc3n(C)c2=O)CC1 (stereo partly drawn) [Example 24, 4-(((R)-1-(3-(difluoromethyl)-2-fluorophenyl)ethyl)amino)-8-methyl-6-(1-(methylimino)-1-oxido-1,2,3,6-tetrahydro-1λ^6-thiopyran-4-yl)pyrido[2,3-d]pyrimidin-7(8H)-one]
10 | CO[C@]1(c2cc3c(N[C@H](C)c4cccc(C(F)F)c4F)ncnc3n(C)c2=O)CCN(C(C)=O)C1 [Example 32-2]
11.6 | C[C@@H](Nc1ncnc2c1cc(C1(C#N)CCS(=O)(=O)CC1)c(=O)n2C)c1cccc(C(F)F)c1F [Example 36-1]
134 | C[C@@H](Nc1ncnc2c1cc(C1=CCOCC1)c(=O)n2C)c1cccc(C(F)(F)F)c1 [Example 5, (R)-6-(3,6-dihydro-2H-pyran-4-yl)-8-methyl-4-((1-(3-(trifluoromethyl)phenyl)ethyl)amino)pyrido[2,3-d]pyrimidin-7(8H)-one]
59.8 | C[C@@H](Nc1ncnc2c1cc(N1CCOCC1)c(=O)n2C)c1cccc(C(F)(F)CO)c1 [Example 2, (R)-4-((1-(3-(1,1-difluoro-2-hydroxyethyl)phenyl)ethyl)amino)-8-methyl-6-morpholinopyrido[2,3-d]pyrimidin-7(8H)-one]
93.7 | COC1(c2cc3c(N[C@H](C)c4cccc(C(F)F)c4F)ncnc3n(C)c2=O)CCOCC1 [Example 32-56]
41.2 | Cc1c(C(F)F)cccc1[C@@H](C)Nc1ncnc2c1cc(C1CCS(=O)(=O)CC1)c(=O)n2C [Example 33-5]
93.1 | COC1(c2cc3c(N[C@H](C)c4cccc(C(F)F)c4F)ncnc3n(C)c2=O)CC2CN(C(C)=O)C2C1 (some centres unmarked) [Example 32-36]
137 | CC(=O)N1CCC(c2cc3c(N[C@H](C)c4cccc(C(F)F)c4C(F)F)ncnc3n(C)c2=O)CC1 [Example 38, 6-(1-acetylpiperidin-4-yl)-4-{[(1R)-1-[2,3-bis(difluoromethyl)phenyl]ethyl]amino}-8-methyl-7H,8H-pyrido[2,3-d]pyrimidin-7-one]
13.3 | COC1(c2cc3c(N[C@H](C)c4cccc(C(F)F)c4F)nc(C)nc3n(C)c2=O)CCN(C(C)=O)C1 (some centres unmarked) [Example 32-58]
24.1 | COC1(c2cc3c(N[C@H](C)c4cccc(C(F)F)c4F)ncnc3n(C)c2=O)CCC2(CC1)CS(=O)(=NC1CC1)C2 (some centres unmarked) [Example 68-1]
92.1 | CO[C@@]1(c2cc3c(N[C@H](C)c4cccc(C(F)F)c4F)ncnc3n(C)c2=O)CCN(C(C)=O)[C@H](C)C1 [Example 32-28]
5.4 | CO[C@@]1(c2cc3c(N[C@H](C)c4cccc(C(F)F)c4F)ncnc3n(C)c2=O)C[C@@H](C)N(C(C)=O)C1 [Example 32-48]

same assay, conditions: Homo sapiens, PC-9, 1 h, read-out: SOS1 pERK IC50

SMILES | IC50 [nM]
C[C@@H](Nc1ncnc2c1cc(C1(C#N)CCN(C)CC1)c(=O)n2C)c1cccc(C(F)F)c1F [Example 36-2] | 63

same assay, conditions: PC-9 cells (EGFR Ex19Del), 1 hour incubation, AlphaLISA SureFire Ultra p-ERK1/2; read-out: SOS1 pERK IC50

SMILES | IC50 [nM]
CC(=O)N1CCC2(c3cc4c(N[C@H](C)c5cccc(C(F)F)c5F)ncnc4n(C)c3=O)CC2C1 (single isomer, unassigned) [Example 54-4] | 301
COC1(c2cc3c(N[C@H](C)c4cccc(C(F)F)c4F)ncnc3n(C)c2=O)CCS(=O)(=NC2CC2)CC1 (single isomer, unassigned) [Example 69] | 94
C[C@@H](Nc1ncnc2c1cc(C1(N)CCP(C)(=O)CC1)c(=O)n2C)c1cccc(C(F)F)c1F (some centres unmarked) [Example 31-10] | 51.8
COC1(c2cc3c(N[C@H](C)c4cccc(C(F)F)c4F)ncnc3n(C)c2=O)CCS(=N)(=O)CC1 (single isomer, unassigned) [Example 50] | 112
C[C@@H](Nc1ncnc2c1cc(C1(C#N)CCC3(CC1)CS(=O)(=NC1CC1)C3)c(=O)n2C)c1cccc(C(F)F)c1F (single isomer, unassigned) [Example 58-1] | 386
CN=S1(=O)CCC(c2cc3c(N[C@H](C)c4cccc(C(F)F)c4F)ncnc3n(C)c2=O)CC1 (single isomer, unassigned) [Example 64-3] | 58.3
CN=S1(=O)CCC(c2cc3c(N[C@H](C)c4cccc(C(F)F)c4F)ncnc3n(C)c2=O)CC1 (single isomer, unassigned) [Example 64] | 131
